This note sets out measurements from ChEMBL document CHEMBL4765439, “Identification of the subtype-selective Sirt5 inhibitor balsalazide through systematic SAR analysis and rationalization via theoretical investigations” (Eur J Med Chem, 2020).

As usually defined, the inhibition is the change of the read-out against control, counted positive when it falls. A word on the IC50: it is the point on the concentration scale where inhibition reaches its midpoint.

Assay [1] deals with T1, NAD-dependent protein deacetylase sirtuin-2 (Homo sapiens) (UniProt Q8IXJ6).
T1 sequence (whole entry): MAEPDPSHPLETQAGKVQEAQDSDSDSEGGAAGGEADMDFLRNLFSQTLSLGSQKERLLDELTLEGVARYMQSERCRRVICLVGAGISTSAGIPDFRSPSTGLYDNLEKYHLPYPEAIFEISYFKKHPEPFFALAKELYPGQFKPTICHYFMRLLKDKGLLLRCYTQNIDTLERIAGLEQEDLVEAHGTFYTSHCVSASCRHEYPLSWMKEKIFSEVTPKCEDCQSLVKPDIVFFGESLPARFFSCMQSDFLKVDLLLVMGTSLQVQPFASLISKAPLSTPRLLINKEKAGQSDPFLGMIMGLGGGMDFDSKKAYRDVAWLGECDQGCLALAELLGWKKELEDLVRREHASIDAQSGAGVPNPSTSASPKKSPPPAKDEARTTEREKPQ
Kind of assay: Inhibition of recombinant human SIRT2 (25 to 389 residues) expressed in Escherichia coli BL21(DE3) at 50 uM using ZMAL as substrate incubated for 4 hrs in presence of NAD+ followed by incubation with trypsin for 20 mins by trypsin-coupled assay based homogenous fluorescence analysis relative to control. The following applies: time 260.0 min.

The target of assay [2] is T2, NAD-dependent protein deacetylase sirtuin-1 (Homo sapiens) (UniProt Q96EB6).
T2 sequence (whole entry): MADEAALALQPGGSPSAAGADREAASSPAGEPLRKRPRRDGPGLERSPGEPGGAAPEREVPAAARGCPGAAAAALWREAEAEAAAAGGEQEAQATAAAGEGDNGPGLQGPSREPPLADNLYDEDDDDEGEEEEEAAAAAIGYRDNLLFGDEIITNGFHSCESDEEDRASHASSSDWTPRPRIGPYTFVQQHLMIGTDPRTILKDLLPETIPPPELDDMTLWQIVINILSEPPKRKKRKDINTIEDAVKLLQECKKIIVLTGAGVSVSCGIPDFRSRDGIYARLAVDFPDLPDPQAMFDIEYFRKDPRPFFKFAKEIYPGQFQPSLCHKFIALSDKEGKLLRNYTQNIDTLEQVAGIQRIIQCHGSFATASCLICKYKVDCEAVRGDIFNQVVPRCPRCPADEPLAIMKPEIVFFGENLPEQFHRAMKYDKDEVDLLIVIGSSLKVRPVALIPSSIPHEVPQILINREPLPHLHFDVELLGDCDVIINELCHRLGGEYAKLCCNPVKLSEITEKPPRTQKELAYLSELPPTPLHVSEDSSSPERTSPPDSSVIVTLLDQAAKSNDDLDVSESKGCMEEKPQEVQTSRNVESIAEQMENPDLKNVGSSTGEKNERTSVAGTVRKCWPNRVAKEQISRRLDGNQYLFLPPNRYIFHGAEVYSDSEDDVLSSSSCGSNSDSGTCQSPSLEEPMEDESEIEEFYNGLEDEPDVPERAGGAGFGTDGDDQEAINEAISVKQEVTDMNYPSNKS
Kind of assay: Inhibition of recombinant human SIRT1 (133 to 747 residues) expressed in Escherichia coli BL21(DE3) at 50 uM using ZMAL as substrate incubated for 4 hrs in presence of NAD+ followed by incubation with trypsin for 20 mins by trypsin-coupled assay based homogenous fluorescence analysis relative to control. To be noted: time 260.0 min.

In assay [3] the target is T3, NAD-dependent protein deacylase sirtuin-5, mitochondrial (Homo sapiens, UniProt Q9NXA8). Kind of assay: Inhibition of recombinant human SIRT5 at 50 uM using flour de lys succinyl as substrate in presence of NAD+ by fluorometric assay relative to control.
Target sequence in this assay (Q9NXA8 37-310 limits assumed): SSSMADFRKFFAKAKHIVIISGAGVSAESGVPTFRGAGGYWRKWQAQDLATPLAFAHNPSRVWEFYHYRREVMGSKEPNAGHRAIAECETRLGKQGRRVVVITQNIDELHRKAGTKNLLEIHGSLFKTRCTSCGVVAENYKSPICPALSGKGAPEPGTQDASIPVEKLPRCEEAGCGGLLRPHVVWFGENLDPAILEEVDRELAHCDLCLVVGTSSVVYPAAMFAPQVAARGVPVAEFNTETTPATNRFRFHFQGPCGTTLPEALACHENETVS
The target of assay [4] is T4, NAD-dependent protein deacetylase sirtuin-3, mitochondrial (Homo sapiens) (UniProt Q9NTG7).
T4 sequence (whole entry): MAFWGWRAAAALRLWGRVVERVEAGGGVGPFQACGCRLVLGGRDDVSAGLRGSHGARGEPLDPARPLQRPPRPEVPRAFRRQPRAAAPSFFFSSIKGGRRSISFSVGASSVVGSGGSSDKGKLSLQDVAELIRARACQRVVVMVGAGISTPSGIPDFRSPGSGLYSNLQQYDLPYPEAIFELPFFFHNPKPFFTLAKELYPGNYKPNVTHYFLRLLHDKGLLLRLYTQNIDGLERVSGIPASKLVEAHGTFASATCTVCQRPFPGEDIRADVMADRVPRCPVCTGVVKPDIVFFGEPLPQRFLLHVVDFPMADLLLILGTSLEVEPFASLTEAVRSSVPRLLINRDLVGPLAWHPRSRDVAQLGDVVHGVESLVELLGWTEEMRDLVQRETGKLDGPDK
Kind of assay: Inhibition of recombinant human SIRT3 (101 to 399 residues) expressed in Escherichia coli BL21(DE3) at 100 uM using ZMAL as substrate incubated for 4 hrs in presence of NAD+ followed by incubation with trypsin for 20 mins by trypsin-coupled assay based homogenous fluorescence analysis relative to control. The following applies: time 260.0 min.

In assay [5] the target is T2, NAD-dependent protein deacetylase sirtuin-1 (Homo sapiens). Kind of assay: Inhibition of recombinant human SIRT1 (133 to 747 residues) expressed in Escherichia coli BL21(DE3) at 100 uM using ZMAL as substrate incubated for 4 hrs in presence of NAD+ followed by incubation with trypsin for 20 mins by trypsin-coupled assay based homogenous fluorescence analysis relative to control. The following applies: time 260.0 min.

Assay [6] addresses T1, NAD-dependent protein deacetylase sirtuin-2 (Homo sapiens). Kind of assay: Inhibition of recombinant human SIRT2 (25 to 389 residues) expressed in Escherichia coli BL21(DE3) at 100 uM using ZMAL as substrate incubated for 4 hrs in presence of NAD+ followed by incubation with trypsin for 20 mins by trypsin-coupled assay based homogenous fluorescence analysis relative to control. To be noted: time 260.0 min.

For assay [7], the target named is T3, NAD-dependent protein deacylase sirtuin-5, mitochondrial. The experiment in a line: Inhibition of SIRT5 (unknown origin).
Target sequence in this assay (Q9NXA8 whole entry): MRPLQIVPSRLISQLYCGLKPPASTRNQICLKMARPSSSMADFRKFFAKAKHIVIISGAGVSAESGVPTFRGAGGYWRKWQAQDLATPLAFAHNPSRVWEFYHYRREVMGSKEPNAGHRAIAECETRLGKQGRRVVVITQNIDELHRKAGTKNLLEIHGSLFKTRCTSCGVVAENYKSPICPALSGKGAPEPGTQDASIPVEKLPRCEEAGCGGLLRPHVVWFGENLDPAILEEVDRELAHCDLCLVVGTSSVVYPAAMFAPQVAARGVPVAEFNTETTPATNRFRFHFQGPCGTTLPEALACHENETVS
For assay [8] the target is unchanged. Kind of assay: Competitive inhibition of recombinant human SIRT5 assessed as substrate conversion at 50 uM using ZKsA as substrate in presence of increasing concentration of NAD+ by trypsin-coupled assay.
Target sequence in this assay (Q9NXA8 37-310 limits assumed): as the sequence (Q9NXA8 37-310 limits assumed) above
For assay [9] the target is unchanged. Kind of assay: Competitive inhibition of recombinant human SIRT5 assessed as substrate conversion at 50 uM using increasing concentration of ZKsA as substrate in presence of NAD+ by trypsin-coupled assay.
Target sequence in this assay (Q9NXA8 37-310 limits assumed): as above
The target is the same in assay [10]. Kind of assay: Inhibition of recombinant human SIRT5 using flour de lys succinyl as substrate in presence of NAD+ by fluorometric assay.
Target sequence in this assay (Q9NXA8 whole entry): as the sequence (Q9NXA8 whole entry) above

Molecules are shown by their SMILES. Activity calls are given as the source filed them. The calls are words filed in the database; no cut-off is given here.

In the case of `NC(=O)c1cccnc1`, the inhibition in assay [1] is 65%; in [2], 21%.

Take `O=C(O)CNC(=S)Nc1ccc(/N=N/c2ccc(O)c(C(=O)O)c2)cc1`: the inhibition in assay [3] turned out to be 24%.

For `O=C(O)CCNC(=O)c1ccc(/N=N/c2ccccc2)cc1`, the inhibition in assay [1] was 16%; in assay [3], 62%; in [6], under 25%; in assay [2], under 10%. Further, the inhibition entry in [4] and in assay [5] was “inactive” throughout.

With `NC(=O)c1ccc(/N=N/c2ccc(O)c(C(=O)O)c2)cc1`, the inhibition in assay [3] amounted to 32%.

Turning to `O=C(O)c1ccc(/N=N/c2ccc(O)c(C(=O)O)c2)cc1`, the inhibition in [3] stood at 27%.

On to `C[C@]12CC[C@@H]3c4ccc(O)cc4C[C@@H](CCCCCCCCC[S+]([O-])CCCC(F)(F)C(F)(F)F)[C@H]3[C@@H]1CC[C@@H]2O` (some centres not stated) [FULVESTRANT], for which the half-inhibitory concentration (IC50) in [7] was 2.6 µM.

Regarding `O=C(O)CCNCc1ccc(/N=N/c2ccc(O)c(C(=O)O)c2)cc1`, the inhibition entry in [8] and in assay [9] was “inactive” throughout. Besides, the inhibition is 19% in [1], 27% in assay [3] and under 10% in assay [2].

Regarding `O=C(O)CCCCc1ccc(/N=N/c2ccc(O)c(C(=O)O)c2)cc1`, the inhibition in assay [3] was 32%.

`O=C(O)CCCC(O)c1ccc(/N=N/c2ccc(O)c(C(=O)O)c2)cc1` (configuration not stated): in [3], the inhibition came to 39%.

In the case of `CCCNC(=O)c1ccc(/N=N/c2ccc(O)c(C(=O)O)c2)cc1`, the inhibition in assay [3] is 31%.

For `Cc1cc(C(C#N)c2ccc(Cl)cc2)c(Cl)cc1NC(=O)c1cc(I)cc(I)c1O` (configuration not stated) [CLOSANTEL], the concentration for half-maximal inhibition (IC50) in assay [7] turned out to be 2.7 µM.

Turning to `Cc1ccc(C(=O)Nc2ccc(S(=O)(=O)O)c3cc(S(=O)(=O)O)cc(S(=O)(=O)O)c23)cc1NC(=O)c1cccc(NC(=O)Nc2cccc(C(=O)Nc3cc(C(=O)Nc4ccc(S(=O)(=O)O)c5cc(S(=O)(=O)O)cc(S(=O)(=O)O)c45)ccc3C)c2)c1`, the inhibition is 53% in assay [3] and 95% in [2].

On to `CC1=C2C(=COC(C)C2C)C(O)=C(C(=O)O)C1=O` (configuration not stated), for which, in assay [7], the half-inhibitory concentration (IC50) was 90 µM.

For the compound `CC(C)(Sc1cc(C(C)(C)C)c(O)c(C(C)(C)C)c1)Sc1cc(C(C)(C)C)c(O)c(C(C)(C)C)c1` [PROBUCOL], the 50% inhibitory concentration (IC50) in [7] was found to be 1.6 µM.

As to `O=C(O)CCNC(=O)c1ccc(/N=N/c2ccc(O)cc2)cc1`, the inhibition result in assay [8] and in [9] was “inactive” throughout. Also, the inhibition in assay [1] is 26%; in [3] it was 73%; in assay [2], under 10%.

Regarding `O=C(O)CCNC(=O)c1ccc(/N=N/c2cccc(C(=O)O)c2)cc1`, the inhibition in [1] is 21%; in [3], 63%; in [6], under 25%; in assay [2], under 10%. The inhibition result in assay [4] and in assay [5] was “inactive” throughout.

On to `O=C(O)CCCC(=O)c1ccc(/N=N/c2ccc(O)c(C(=O)O)c2)cc1`, for which the inhibition in [3] came out at 54%.

For the compound `O=C(O)CCC(=O)Nc1ccc(/N=N/c2ccc(O)c(C(=O)O)c2)cc1`, the inhibition in assay [3] was found to be 26%.

As to `O=C(O)CCNC(=O)c1ccc(/N=N/c2ccc(O)c(C(=O)O)c2)cc1` [BALSALAZIDE], the inhibition result in [8] and in assay [9] was “inactive” in each case. For the same compound, the IC50 in [7] was 3.9 µM; in assay [10] it was 5.3 µM. Further, the inhibition in [1] was 11%; in [3], 83%; in assay [2], under 10%.

Regarding `C=C1c2cccc(O)c2C(=O)C2=C(O)[C@]3(O)C(=O)C(C(N)=O)=C(O)[C@@H](N(C)C)[C@@H]3[C@@H](O)[C@H]12` [METHACYCLINE], the half-inhibitory concentration (IC50) in assay [7] was 3.6 µM.

With `O=C(O)CCOCc1ccc(/N=N/c2ccc(O)c(C(=O)O)c2)cc1`, the inhibition in assay [3] is 33%.
